# Assay results from US20090170937A1, “Amino Acid Derivatives” (Proximagen Ltd., priority 2006, published 2009).
# Non-standard residues stand in square brackets, D forms with d. Residues, ends and D or L forms follow the SMILES beside them. *: point of attachment. Dopa = N[C@@H](Cc1ccc(O)c(O)c1)C(=O)O; αMeF = C[C@](N)(Cc1ccccc1)C(=O)O; Aic = NC1(C(=O)O)Cc2ccccc2C1; Ac6c = NC1(C(=O)O)CCCCC1; Ac5c = NC1(C(=O)O)CCCC1; Ac4c = NC1(C(=O)O)CCC1; Ac3c = NC1(C(=O)O)CC1; Aib = CC(C)(N)C(=O)O; OcHex = C1CCC(O*)CC1; OBn = c1ccc(CO*)cc1; OiPr = CC(C)O*
# System: 6-OHDA-lesioned rats
# Experiment: Induction of rotational activity in 6-OHDA-lesioned rats
# Format: in vivo, Male Wistar rats
# Conditions: i.p., 63.4 μmole/kg, after benserazide 10 mg/kg; active = >10 turns per 10 minutes
row,Compound,duration of activity (as % of L-DOPA duration of activity) [%]
1,"COC(=O)[C@H](Cc1ccc(O)c(O)c1)NC(=O)C(C)(C)N.Cl [Example 1, 1-[(S)-2-(3,4-Dihydroxyphenyl)-1-methoxycarbonylethylcarbamoyl]-1-methyl-ethylammonium Chloride] (H-[Aib]-[Dopa]-OMe)",63

# Same assay, conditions: p.o., 63.4 μmole/kg, after benserazide 10 mg/kg; active = >10 turns per 10 minutes
row,Compound,duration of activity (as % of L-DOPA duration of activity) [%]
1,"COC(=O)[C@H](Cc1ccc(OC(C)=O)c(OC(C)=O)c1)NC(=O)C(C)(C)N.Cl [Example 2, 1-[(S)-2-(3,4-Diacetoxyphenyl)-1-methoxycarbonylethylcarbamoyl]-1-methyl-ethylammonium Chloride]",73
2,"CC(C)(N)C(=O)N[C@@H](Cc1ccc(O)c(O)c1)C(=O)OCc1ccccc1.Cl [Example 3, 1-[(S)-1-Benzyloxycarbonyl-2-(3,4-dihydroxyphenyl)-ethylcarbamoyl]-1-methyl-ethylammonium Chloride] (H-[Aib]-[Dopa]-OBn)",38
3,"COC(=O)[C@H](Cc1ccc(O)c(O)c1)NC(=O)C1(N)CCCCC1.Cl [Example 4, 1-[(S)-2-(3,4-Dihydroxy-phenyl)-1-methoxycarbonyl-ethylcarbamoyl]-cyclohexyl-ammonium Chloride] (H-[Ac6c]-[Dopa]-OMe)",84
4,"COC(=O)[C@H](Cc1ccc(OC(C)=O)c(OC(C)=O)c1)NC(=O)C1(N)CCCCC1.Cl [Example 5, 1-[(S)-2-(3,4-Diacetoxyphenyl)-1-methoxycarbonylethylcarbamoyl]-cyclohexyl-ammonium Chloride]",42
5,"CC(C)(N)C(=O)N[C@@H](Cc1ccc(O)c(O)c1)C(=O)O.Cl [Example 6, 1-[(S)-1-Carboxy-2-(3,4-dihydroxyphenyl)-ethylcarbamoyl]-1-methylethyl-ammonium Chloride] (H-[Aib]-[Dopa]-OH)",57
6,"COC(=O)[C@H](Cc1ccc(O)c(O)c1)NC(=O)C1(N)CCCC1.Cl [Example 7, 1-[(S)-2-(3,4-Dihydroxyphenyl)-1-methoxycarbonylethylcarbamoyl]-cyclopentyl-ammonium Chloride] (H-[Ac5c]-[Dopa]-OMe)",97
7,"COC(=O)[C@H](Cc1ccc(OC(C)=O)c(OC(C)=O)c1)NC(=O)C1(N)CCCC1.Cl [Example 8, 1-[(S)-2-(3,4-Diacetoxyphenyl)-1-methoxycarbonylethylcarbamoyl]-cyclopentyl-ammonium Chloride]",44
8,"CC(=O)Oc1ccc(C[C@H](NC(=O)C(C)(C)N)C(=O)O)cc1OC(C)=O.Cl [Example 9, 1-[(S)-1-Carboxy-2-(3,4-diacetoxyphenyl)-ethylcarbamoyl]-1-methylethyl-ammonium Chloride]",45
9,COC(=O)[C@H](Cc1ccc(O)c(O)c1)NC(=O)C1(N)CCC1.Cl [Example 10] (H-[Ac4c]-[Dopa]-OMe),73
10,"COC(=O)[C@H](Cc1ccc(OC(C)=O)c(OC(C)=O)c1)NC(=O)C1(N)CCC1.Cl [Example 11, 1-[(S)-2-(3,4-Diacetoxyphenyl)-1-methoxycarbonylethylcarbamoyl]-cyclobutyl-ammonium Chloride]",67
11,"COC(=O)[C@H](Cc1ccc(O)c(O)c1)NC(=O)[C@@](C)(N)Cc1ccccc1.Cl [Example 12, (S)-1-[(S)-2-(3,4-Dihydroxyphenyl)-1-methoxycarbonyl-ethylcarbamoyl]-1-methyl-2-phenylethylammonium Chloride] (H-[αMeF]-[Dopa]-OMe)",52
12,"C[C@](N)(Cc1ccccc1)C(=O)N[C@@H](Cc1ccc(O)c(O)c1)C(=O)O.Cl [Example 13, (S)-1-[(S)-1-Carboxy-2-(3,4-dihydroxyphenyl)-ethylcarbamoyl]-1-methyl-2-phenylethylammonium Chloride] (H-[αMeF]-[Dopa]-OH)",40
13,"Cl.NC1(C(=O)N[C@@H](Cc2ccc(O)c(O)c2)C(=O)O)CCCC1 [Example 14, 1-[(S)-1-Carboxy-2-(3,4-dihydroxyphenyl)-ethylcarbamoyl]-cyclopentyl-ammonium Chloride] (H-[Ac5c]-[Dopa]-OH)",62
14,"COC(=O)[C@H](Cc1ccc(O)c(O)c1)NC(=O)C1(N)Cc2ccccc2C1.Cl [Example 15, 2-[(S)-2-(3,4-Dihydroxyphenyl)-1-methoxycarbonylethylcarbamoyl]-indan-2-yl-ammonium Chloride] (H-[Aic]-[Dopa]-OMe)",31
15,"COC(=O)[C@H](Cc1ccc(OC(C)=O)c(OC(C)=O)c1)NC(=O)C1(N)Cc2ccccc2C1.Cl [Example 16, 2-[(S)-2-(3,4-Diacetoxyphenyl)-1-methoxycarbonylethylcarbamoyl]-indan-2-yl-ammonium Chloride]",21
16,"CC(C)OC(=O)[C@H](Cc1ccc(O)c(O)c1)NC(=O)C(C)(C)N.Cl [Example 17, 1-[(S)-2-(3,4-Dihydroxyphenyl)-1-isopropoxycarbonylethylcarbamoyl]-1-methyl-ethylammonium Chloride] (H-[Aib]-[Dopa]-OiPr)",72
17,CC(C)(N)C(=O)N[C@@H](Cc1ccc(O)c(O)c1)C(=O)OC1CCCCC1.Cl [Example 18] (H-[Aib]-[Dopa]-OcHex),70
18,"Cl.NC1(C(=O)N[C@@H](Cc2ccc(O)c(O)c2)C(=O)O)CCC1 [Example 20, 1-[(S)-1-Carboxy-2-(3,4-dihydroxyphenyl)-ethylcarbamoyl]-cyclobutyl-ammonium Chloride] (H-[Ac4c]-[Dopa]-OH)",37
19,"Cl.NC1(C(=O)N[C@@H](Cc2ccc(O)c(O)c2)C(=O)O)CC1 [Example 21, 1-[(S)-1-Carboxy-2-(3,4-dihydroxyphenyl)-ethylcarbamoyl]-cyclopropyl Ammonium Chloride] (H-[Ac3c]-[Dopa]-OH)",76
20,"COC(=O)[C@H](Cc1ccc(OC(C)=O)c(OC(C)=O)c1)NC(=O)[C@@](C)(N)Cc1ccccc1.Cl [Example 22, (S)-1-[(S)-2-(3,4-Diacetoxyphenyl)-1-methoxycarbonylethylcarbamoyl]-1-methyl-2-phenylethylammonium Chloride]",19
21,"CC(C)CCOC(=O)[C@H](Cc1ccc(O)c(O)c1)NC(=O)C(C)(C)N.Cl [Example 23, 1-[(S)-2-(3,4-Dihydroxyphenyl)-1-(3-methylbutoxycarbonyl)-ethylcarbamoyl]-1-methylethylammonium Chloride]",49
22,"COC(=O)[C@H](Cc1ccc(OC(=O)CC(C)(C)C)c(OC(=O)CC(C)(C)C)c1)NC(=O)C1(N)CCCCC1.Cl [Example 24, 1-{(S)-2-[3,4-Bis-(3,3-dimethylbutyryloxy)-phenyl]-1-methoxycarbonyl-ethylcarbamoyl}-cyclohexylammonium Chloride]",36
